Measurements reported in US5508310A, “Immunopotentiatory agents and physiologically acceptable salts thereof” (Burroughs Wellcome Co., priority 1992, dated 1996).
“And” between values parts separate entries of the source, which are not always exact repeats. Equal values may be shown once.

What was measured:
[1] = tested on: mononuclear cell fraction of blood from healthy donors immunised with tetanus toxoid; format: cell-based, human (healthy donors)
[2] = tested on: mouse colon adenocarcinoma 38 (MCA38); assay: Antitumour activity: outgrowth of subcutaneously implanted mouse colon adenocarcinoma 38 (MCA38) in C57BL/6 mice; format: in vivo, mouse (C57BL/6); settings: for Tumour weight on day 24 after tumour implantation (individual mice): intraperitoneally, every alternate day, 9 doses, individual animal values; for Mean % red. (tumour weight) / Median % red. (tumour weight): vs controls (group A); for Mean tumour weight on day 24: controls mean 0.635; for Median tumour weight on day 24: controls median 0.636
Procedure: The activity of the tucaresol was evaluated against the outgrowth of subcutaneously implanted mouse colon adenocarcinoma 38 (MCA38) in female C57BL/6 mice, using the following protocol:
Day 0 Fifteen, female and 16 male C57BL/6 mice each im-
planted subcutaneously with one 2 mm cube of tumour.
Mice randomized and divided into three groups -
Group A, 5 females and 5 males, Group B, 5 females
and 5 males, Group C, 5 females and 6 males.
Day 5 Test groups B and C each dosed with 589C80 (1 mg or
to 0.2 mg per mouse dissolved in 0.2 ml PBS,
intraperitoneally) once every alternate day (total of 9
doses). Control mice (group A) given PBS alone.
All mice killed, tumours excised and weighed. Mean and
median tumour weight in test group compared with
Tucaresol was dissolved in PBS by dropwise addition of 1M KOH to pH 10.0 followed by dropwise addition of conc. HCL to return pH to neutral.
Dosing schedule where drug was given on alternate days was chosen in order to extend the dosing period over 14 rather than 7 days. By so doing tumours were exposed to the drug from day 13 right up until […] i.e. 2 days before the experiment was terminated.

[3] = tested on: Pneumocystis carinii; settings: AIDS patients; Wofsy 1986; cited from earlier work

## O=CCCc1ccccc1 [Compound 5, 3-Phenylproponion-aldhyde]
[1]
  IC50 Ratio with 4-Hydroxyphenylacetaldehyde: 40

## O=Cc1c(O)cccc1OCc1ccc(C(=O)O)cc1 [Tucaresol]
[2]; Group B, 1.0 mg/mouse
  Tumour weight on day 24 after tumour implantation (individual mice): 0.740 grammes and 0.695 grammes and 0.358 grammes and 0.303 grammes and 0.298 grammes and 0.090 grammes and 0.079 grammes and 0.038 grammes and 0.022 grammes
  Mean % red. (tumour weight): 54.2%
  Median % red. (tumour weight): 53.15%
  Median tumour weight on day 24: 0.298 grammes
[2]; Group B, 1.0 mg/mouse, S.D. 0.272
  Mean tumour weight on day 24: 0.291 grammes
[2]; Group C, 0.2 mg/mouse
  Tumour weight on day 24 after tumour implantation (individual mice): 0.802 grammes and 0.272 grammes and 0.230 grammes and 0.197 grammes and 0.181 grammes and 0.126 grammes and 0.085 grammes and 0.029 grammes and 0.019 grammes and 0.006 grammes
  Mean % red. (tumour weight): 70.4%
  Median % red. (tumour weight): 80.19%
  Median tumour weight on day 24: 0.126 grammes
[2]; Group C, 0.2 mg/mouse, S.D. 0.222
  Mean tumour weight on day 24: 0.188 grammes
[2]; syngeneic C57BL/6 mice, result in words
  Inhibition of outgrowth of subcutaneously implanted MCA38: inhibited the outgrowth

## N=C(N)c1ccc(OCCCCCOc2ccc(C(=N)N)cc2)cc1 [pentamidine]
[3]
  Effectiveness in Pneumocystis carinii pneumonia: 50-70%
  Incidence of adverse reactions: around 50%

## trimethoprim-sulphamethoxazole
[3]
  Effectiveness in Pneumocystis carinii pneumonia: 50-70%
